According to patent publication US20220204449A1, “BIASED AGONISTS OF OPIOID RECEPTORS” (ILDONG PHARMACEUTICAL CO., LTD., priority 2020, published 2022):
pEC50: −log10 of the molar value. “Also recorded” adds a separate entry of the source. Where two headings read alike, the source gives them in different places.

Assays:
Assay type in all cases: cell-based
[1] = molecular target: T1, human μ-opioid receptor, OPRM (Homo sapiens, UniProt P35372); assay: Dominant assay: cAMP assay with/without irreversible antagonist β-FNA, OPRM cell line; details: for maximal response on decreasing receptor population (dominant tendency), in words: OPRM cell lines, β-FNA
T1 construct: host or cells: HEK-293 overexpressing β-arrestin2 fused to a β-galactosidase fragment
Text: (§1) To confirm the agonist's efficacy in a nature-like system, we need inactivation of target receptors on the cell membrane. Most cell lines have an abundant target receptor population (also known as spare receptors). Therefore, agonists have more opportunity to constitute agonist-receptor conformation. In this environment, not only full agonists but also partial agonists can reach maximal response.
(§2) If the partial agonist is selected as a full agonist, translational in vivo research will likely fail.
(§3) Non-competitive, irreversible antagonists can be applicable to judge the pharmacological character of agonists because they permanently decrease the receptor population in the cell line system. β-FNA or β-CNA is used as a non-competitive and irreversible antagonist for OPRM, OPRD. Before cAMP assay, cells were incubated with β-FNA or β-CNA for 40 minutes. Afterwards, the procedure is the same.
(§4) If a partial agonist compound acts as a full agonist due to receptor population (pseudo full agonist), it cannot sustain maximal response with reduced receptor population. However, a full agonist compound maintains their maximal response even though increased EC50.

[2] = molecular target: T2, human δ-opioid receptor, OPRD (Homo sapiens, UniProt P41143); assay: PathHunter β-arrestin 2 assay, OPRD cell line; details: for β-arrestin pathway activation / bARR2 recruitment, in words: OPRD
T2 construct: host or cells: HEK-293 overexpressing β-arrestin2 fused to a β-galactosidase fragment
Text: (§5) Human embryonic kidney 293 (HEK-293) cells which transfected overexpress (3-arrestin2 fused β-galactosidase fragment were purchased from DiscoverX. Human OPRM1 gene (NM 000914.3, encoding human μ-opioid receptor, OPRM) and Human OPRD1 gene (NM 000911.3, encoding human δ-opioid receptor, OPRD) were fused to a pCMV-ProLink plasmid which contains complementary β-galactosidase fragment purchased from DiscoverX. To generate human OPRM1 or OPRD1 expression cell lines, HEK-293 cells were transfected to prepared plasmid and grown in DMEM medium with 10% fetal bovine serum, 150 μg/mL Hygromycin B and 500 μg/mL G418.
(§6) The PathHunter enzyme assay was performed to measure the agonist's capability of β-arrestin 2 pathway activation. When agonists bind to G protein-coupled receptor (GPCR), the receptor pathway is sequentially activated from G protein to β-arrestin 2 recruitment.
(§7) Because […] β-arrestin 2 and C-terminal of GPCR have a fragment of β-galactosidase, recruitment of β-arrestin 2 to GPCR forms the whole β-galactosidase. The functionality of the whole β-galactosidase is detected by chemiluminescence (FlexStation3, Molecular Devices).
(§8) cAMP and β-arrestin assays described above were conducted to decide whether candidate compounds were μ- and/or δ-opioid receptor bias agonists for the G-protein pathway. All assays produced the concentration-response curve, and the curve data was validated by a quality control factor named Z′ factor. Because half-maximal effect concentration (EC50) depends on the population of receptors, the maximal asymptote of the concentration curve was used. Efficacy data of candidates was normalized by comparison to reference agonists DAMGO and SNC80 for OPRM and OPRD.

[3] = molecular target: T2, human δ-opioid receptor, OPRD; assay: Dominant assay: cAMP assay with/without irreversible antagonist β-CNA, OPRD cell line
Text: as §1, §2, §3, §4

[4] = molecular target: T1, human μ-opioid receptor, OPRM; assay: PathHunter β-arrestin 2 assay, OPRM cell line; details: for OPRM β-ARR2 Emax (%): Example 3, Tables 5-7; for β-arrestin pathway activation / bARR2 recruitment, in words: OPRM
Text: as §5, §6, §7, §8

[5] = addition of β-FNA, Example 3, Tables 5-7, read-out: OPRM Gi β-FNA (+) EC50
[6] = addition of β-FNA, Example 3, Tables 5-7, read-out: OPRM Gi β-FNA (+) Emax (%)
[7] = addition of β-FNA, repeated dominant assay, Example 4, Tables 8-10
[8] = addition of β-FNA, repeated dominant assay, Example 4, Tables 8-10, read-out: OPRM Gi β-FNA (+) EC50
[9] = no addition of β-FNA, Example 3, Tables 5-7, read-out: OPRM Gi β-FNA (−) EC50
[10] = no addition of β-FNA, Example 3, Tables 5-7, read-out: OPRM Gi β-FNA (−) Emax (%)
[11] = no addition of β-FNA, repeated dominant assay, Example 4, Tables 8-10, read-out: OPRM Gi β-FNA (−) EC50
[12] = no addition of β-FNA, repeated dominant assay, Example 4, Tables 8-10, read-out: OPRM Gi β-FNA (−) Emax (%)
[13] = addition of β-CNA, Example 3, Tables 5-7
[14] = addition of β-CNA, repeated dominant assay, Example 4, Tables 8-10
[15] = addition of β-CNA, repeated dominant assay, Example 4, Tables 8-10, read-out: OPRD Gi β-CNA (+) EC50
[16] = no addition of β-CNA, Example 3, Tables 5-7
[17] = no addition of β-CNA, repeated dominant assay, Example 4, Tables 8-10, read-out: OPRD Gi β-CNA (−) EC50
[18] = no addition of β-CNA, repeated dominant assay, Example 4, Tables 8-10, read-out: OPRD Gi β-CNA (−) Emax (%)
[19] = addition of β-CNA, Example 3, Tables 5-7, read-out: OPRD Gi β-CNA (+) EC50
[20] = no addition of β-CNA, Example 3, Tables 5-7, read-out: OPRD Gi β-CNA (−) EC50

T1 sequence (P35372 whole entry, the tested form may be a part): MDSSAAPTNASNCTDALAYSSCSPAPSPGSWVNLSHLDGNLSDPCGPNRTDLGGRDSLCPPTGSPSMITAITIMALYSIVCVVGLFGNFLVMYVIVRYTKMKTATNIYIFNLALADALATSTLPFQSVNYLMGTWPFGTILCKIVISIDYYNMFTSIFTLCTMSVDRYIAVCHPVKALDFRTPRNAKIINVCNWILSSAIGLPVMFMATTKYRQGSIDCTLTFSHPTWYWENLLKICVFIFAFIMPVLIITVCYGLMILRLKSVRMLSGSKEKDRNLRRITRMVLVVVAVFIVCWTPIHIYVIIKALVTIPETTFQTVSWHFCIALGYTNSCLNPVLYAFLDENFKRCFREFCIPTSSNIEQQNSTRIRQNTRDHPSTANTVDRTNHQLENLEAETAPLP
T2 sequence (P41143 whole entry, the tested form may be a part): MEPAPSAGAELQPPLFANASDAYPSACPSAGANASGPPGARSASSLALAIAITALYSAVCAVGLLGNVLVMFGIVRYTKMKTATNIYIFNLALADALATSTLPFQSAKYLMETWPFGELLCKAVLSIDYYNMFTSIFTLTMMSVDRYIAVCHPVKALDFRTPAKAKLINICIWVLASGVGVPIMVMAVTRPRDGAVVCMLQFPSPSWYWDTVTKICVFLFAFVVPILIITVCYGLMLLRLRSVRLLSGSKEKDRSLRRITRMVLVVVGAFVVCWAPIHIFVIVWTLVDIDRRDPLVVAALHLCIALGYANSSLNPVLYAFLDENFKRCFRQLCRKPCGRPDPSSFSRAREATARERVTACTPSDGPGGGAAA

For `C[C@@H](NC(=O)[C@@H](N)Cc1ccc(O)cc1)C(=O)NCC(=O)N(C)[C@@H](Cc1ccccc1)C(=O)NCCO` [DAMGO, [D-Ala^2, NMe-Phe^4, Gly-ol^5]-enkephalin, reference compound], the “maximal response on decreasing receptor population (dominant tendency), in words” value [1] was “full agonist”.

With `CN(C)C(CNC(=O)Cc1ccc2c(c1)OCCO2)c1ccccc1` (single isomer, unassigned) [Compound 4] the “OPRD β-ARR2 Emax (%)” value ([2]; Example 3, Tables 5-7) was 2.8%, the “β-arrestin pathway activation / bARR2 recruitment, in words” value [2] was “lower bARR2 recruitment as compared to morphine” and the “maximal response on decreasing receptor population (dominant tendency), in words” value [1] was “better efficacy than racemic compound 1”. The pEC50 [1, 5] was 4.96, the Emax [1, 6] was 24.6% and the “OPRM Gi β-FNA (+) Emax (%)” value [1, 7] was 45.02%. The pEC50 [1, 8] was 4.92, the pEC50 [1, 9] was 4.70 and the Emax [1, 10] was 82.8%. For the same compound, the pEC50 [1, 11] was 5.03, the Emax [1, 12] was 100% and the “OPRD Gi β-CNA (+) Emax (%)” value [3, 13] was 17.23%. For the same compound, the “OPRD Gi β-CNA (+) Emax (%)” value [3, 14] was 108.1%, the pEC50 [3, 15] was 5.00 and the “OPRD Gi β-CNA (−) Emax (%)” value [3, 16] was 20.59%. For the same compound, the pEC50 [3, 17] was 5.06, the Emax [3, 18] was 100% and the “OPRM β-ARR2 Emax (%)” value [4] was 4.8%. The “β-arrestin pathway activation / bARR2 recruitment, in words” value [4] was “lower bARR2 recruitment as compared to morphine”.

`Cc1ccccc1NC(=O)NCC(c1ccc2c(c1)CCO2)N(C)C` (single isomer, unassigned) [Compound 9] was tested, and the “OPRD β-ARR2 Emax (%)” value ([2]; Example 3, Tables 5-7) was 16.1%, the “OPRM Gi β-FNA (+) Emax (%)” value ([1]; addition of β-FNA, Example 3, Tables 5-7) was 52.64% and the pEC50 [1, 5] was 5.78. For the same compound, the “OPRM Gi β-FNA (+) Emax (%)” value [1, 7] was 74.49%, the pEC50 [1, 8] was 6.10 and the “OPRM Gi β-FNA (−) Emax (%)” value ([1]; no addition of β-FNA, Example 3, Tables 5-7) was 98.76%. For the same compound, the pEC50 [1, 9] was 7.13, the “OPRM Gi β-FNA (−) Emax (%)” value ([1]; no addition of β-FNA, repeated dominant assay, Example 4, Tables 8-10) was 91.98% and the pEC50 [1, 11] was 7.15. For the same compound, the “OPRD Gi β-CNA (+) Emax (%)” value [3, 13] was 51.61%, the pEC50 [3, 19] was 5.23 and the “OPRD Gi β-CNA (+) Emax (%)” value [3, 14] was 51.61%. For the same compound, the pEC50 [3, 15] was 5.23, the “OPRD Gi β-CNA (−) Emax (%)” value [3, 16] was 66.82% and the pEC50 [3, 20] was 5.55. The “OPRD Gi β-CNA (−) Emax (%)” value ([3]; no addition of β-CNA, repeated dominant assay, Example 4, Tables 8-10) was 139%, the pEC50 [3, 17] was 4.74 and the “OPRM β-ARR2 Emax (%)” value [4] was 22.9%.

With `CN1CCc2cc(C(CNC(=O)Nc3ccc(F)cc3)N(C)C)ccc21` (single isomer, unassigned) [Compound 6] the Emax ([2]; Example 3, Tables 5-7, read-out: OPRD β-ARR2 Emax (%)) was 10.5%, the “β-arrestin pathway activation / bARR2 recruitment, in words” value [2] was “lower bARR2 recruitment as compared to morphine” and the “maximal response on decreasing receptor population (dominant tendency), in words” value [1] was “resistant to decreasing spare receptors; also recorded: showed efficacy dominance on both types of opioid receptors; also recorded: resistant to decreasing spare receptor-induced tendency; also recorded: maintained a higher maximal response as compared to compound 2”. For the same compound, the pEC50 [1, 5] was 5.61, the Emax [1, 6] was 77% and the pEC50 [1, 8] was 5.07. The Emax ([1]; addition of β-FNA, repeated dominant assay, Example 4, Tables 8-10, read-out: OPRM Gi β-FNA (+) Emax (%)) was 90.1%, the pEC50 [1, 9] was 6.29 and the Emax [1, 10] was 106%. For the same compound, the pEC50 [1, 11] was 5.73, the Emax [1, 12] was 100% and the “maximal response on decreasing receptor population (dominant tendency), in words” value ([3]; OPRD cell lines, β-CNA) was “resistant to decreasing spare receptors; also recorded: showed efficacy dominance on both types of opioid receptors; also recorded: resistant to decreasing spare receptor-induced tendency; also recorded: maintained a higher maximal response as compared to compound 2”. The pEC50 [3, 19] was 4.32, the Emax ([3]; addition of β-CNA, Example 3, Tables 5-7, read-out: OPRD Gi β-CNA (+) Emax (%)) was 119% and the pEC50 [3, 15] was 4.87. For the same compound, the Emax ([3]; addition of β-CNA, repeated dominant assay, Example 4, Tables 8-10, read-out: OPRD Gi β-CNA (+) Emax (%)) was 81.4%, the “OPRD Gi β-CNA (−) Emax (%)” value [3, 16] was 128.1% and the pEC50 [3, 20] was 5.05. For the same compound, the pEC50 [3, 17] was 5.37, the Emax [3, 18] was 102% and the “OPRM β-ARR2 Emax (%)” value [4] was 8.5%. The “β-arrestin pathway activation / bARR2 recruitment, in words” value [4] was “lower bARR2 recruitment as compared to morphine”.
